Measured values taken from patent US20070049564A1 (Wyeth, priority 2005, published 2007).
Converted amounts (≈) assume the structure as drawn. Where two headings read alike, the source gives them in different places.

How the values were obtained:
E. coli = experiment: Range of MIC for E. coli strains; conditions: Escherichia coli
Method: Antimicrobial susceptibility testing. The in vitro activities of the antibiotics are determined by the broth microdilution method as recommended by the National Committee for Clinical Laboratory Standards (NCCLS) (1). Mueller-Hinton II broth (MHBII)(BBL Cockeysville, Md.) is the medium employed in the testing procedures. Microtiter plates containing serial dilutions of each antimicrobial agent are inoculated with each organism to yield the appropriate density (10^5 CFU/ml) in a 100 μl final volume. The plates are incubated for 18-22 hours at 35° C. in ambient air.
Representative compounds were first incubated in mouse serum for an hour prior to the in vitro testing against a panel of selected gram-positive and gram-negative bacteria strains. All compounds were also pre-incubated in water for an hour prior to testing as control. Representative compounds of Formula I were incubated in human serum prior to MIC determination.

Staph. = experiment: Range of MIC for Staph. strains, including MRSA; conditions: Staphylococcus aureus, MRSA
Staph. aureus Smith = experiment: In vivo activity (oral, iv; ED50) against Staph. aureus Smith in mice
Method: Representative examples of compounds of Formula I were tested for the oral efficacy using S. aureus Smith in mice.

[1] = 20 h, read-out: Range of MIC, E. coli (Mouse Serum)
[2] = read-out: Range of MIC, E. coli (Water)
[3] = read-out: Range of MIC, Staph (Mouse Serum)
[4] = read-out: Range of MIC, Staph (Water)
[5] = Staphylococcus aureus, in Mus musculus, po, read-out: ED50 Staph Smith SOD
[6] = iv, read-out: ED50 Staph Smith SIV
[7] = read-out: Minimum inhibitory concentration (MIC), E. coli (mouse serum)
[8] = read-out: Minimum inhibitory concentration (MIC), E. coli (water)
[9] = read-out: Minimum inhibitory concentration (MIC), Staph. (mouse serum)
[10] = read-out: Minimum inhibitory concentration (MIC), Staph. (water)

SMILES	MIC (E. coli; [1]) [µg/mL]	MIC (E. coli; [2]) [µg/mL]	MIC (Staph.; [3]) [µg/mL]	MIC (Staph.; [4]) [µg/mL]	ED50 (Staph. aureus Smith; [5]) [mg/kg]	ED50 (Staph. aureus Smith; [6]) [mg/kg]	MIC (E. coli; read-out: Range of MIC, E. coli (mouse serum)) [µg/mL]	MIC (E. coli; read-out: Range of MIC, E. coli (water)) [µg/mL]	MIC (Staph.; read-out: Range of MIC, Staph. (mouse serum)) [µg/mL]	MIC (Staph.; read-out: Range of MIC, Staph. (water)) [µg/mL]	MIC (E. coli; [7]) [µg/mL]	MIC (E. coli; [8]) [µg/mL]	MIC (Staph.; [9]) [µg/mL]	MIC (Staph.; [10]) [µg/mL]
CN(C)c1cc(NC(=O)CN(C(=O)OCOC(=O)c2cccc3ccccc23)C(C)(C)C)c(O)c2c1C[C@H]1C[C@H]3[C@H](N(C)C)C(O)=C(C(N)=O)C(=O)[C@@]3(O)C(O)=C1C2=O [Example 81, ({[(2-{[(5aR,6aS,7S,10aS)-9-(aminocarbonyl)-4,7-bis(dimethylamino)-1,8,10a,11-tetrahydroxy-10,12-dioxo-5,5a,6,6a,7,10,10a,12-octahydrotetracen-2-yl]amino}-2-oxoethyl)(tert-butyl)amino]carbonyl}oxy)methyl 1-naphthoate]	0.5 to 1 (≈ 0.614 to 1.23 µM)	8 to 16 (≈ 9.83 to 19.7 µM)	0.5 to 2 (≈ 0.614 to 2.46 µM)	4 to 8 (≈ 4.91 to 9.83 µM)	16 to 32	> 4	–	–	–	–	–	–	–	–
CN(C)c1cc(NC(=O)CN(C(=O)OCOC(=O)c2ccccc2F)C(C)(C)C)c(O)c2c1C[C@H]1C[C@H]3[C@H](N(C)C)C(O)=C(C(N)=O)C(=O)[C@@]3(O)C(O)=C1C2=O [Example 91, ({[(2-{[(5aR,6aS,7S,10aS)-9-(aminocarbonyl)-4,7-bis(dimethylamino)-1,8,10a,11-tetrahydroxy-10,12-dioxo-5,5a,6,6a,7,10,10a,12-octahydrotetracen-2-yl]amino}-2-oxoethyl)(tert-butyl)amino]carbonyl}oxy)methyl 2-fluorobenzoate]	0.5 to 2 (≈ 0.64 to 2.56 µM)	> 64	0.12 to 0.25 (≈ 0.153 to 0.32 µM)	0.25 to 2 (≈ 0.32 to 2.56 µM)	11.7	1.21	–	–	–	–	–	–	–	–
CCCN(CC(=O)Nc1cc(N(C)C)c2c(c1O)C(=O)C1=C(O)[C@]3(O)C(=O)C(C(N)=O)=C(O)[C@@H](N(C)C)[C@@H]3C[C@@H]1C2)C(=O)OCOC(=O)C12CC3CC(CC(C3)C1)C2 [Example 41, ({[(2-{[(5aR,6aS,7S,10aS)-9-(aminocarbonyl)-4,7-bis(dimethylamino)-1,8,10a,11-tetrahydroxy-10,12-dioxo-5,5a,6,6a,7,10,10a,12-octahydrotetracen-2-yl]amino}-2-oxoethyl)(propyl)amino]carbonyl}oxy)methyl adamantane-1-carboxylate]	0.5 to 4 (≈ 0.619 to 4.95 µM)	16 to 64 (≈ 19.8 to 79.2 µM)	0.5 to 4 (≈ 0.619 to 4.95 µM)	1 to 8 (≈ 1.24 to 9.9 µM)	11.3	0.83	0.5 to 4 (≈ 0.619 to 4.95 µM)	16 to 64 (≈ 19.8 to 79.2 µM)	0.5 to 4 (≈ 0.619 to 4.95 µM)	1 to 8 (≈ 1.24 to 9.9 µM)	–	–	–	–
CCCCN(CC(=O)Nc1cc(N(C)C)c2c(c1O)C(=O)C1=C(O)[C@]3(O)C(=O)C(C(N)=O)=C(O)[C@@H](N(C)C)[C@@H]3C[C@@H]1C2)C(=O)OCOC(=O)c1ccsc1 [Example 29, ({[(2-{[(5aR,6aS,7S,10aS)-9-(aminocarbonyl)-4,7-bis(dimethylamino)-1,8,10a,11-tetrahydroxy-10,12-dioxo-5,5a,6,6a,7,10,10a,12-octahydrotetracen-2-yl]amino}-2-oxoethyl)(butyl)amino]carbonyl}oxy)methyl thiophene-3-carboxylate]	0.5 to 1 (≈ 0.649 to 1.3 µM)	> 64	0.25 to 2 (≈ 0.325 to 2.6 µM)	1 to 4 (≈ 1.3 to 5.2 µM)	13.7	0.43	–	–	–	–	0.5 to 1 (≈ 0.649 to 1.3 µM)	> 64	0.25 to 2 (≈ 0.325 to 2.6 µM)	1 to 4 (≈ 1.3 to 5.2 µM)
CCCCN(CC(=O)Nc1cc(N(C)C)c2c(c1O)C(=O)C1=C(O)[C@]3(O)C(=O)C(C(N)=O)=C(O)[C@@H](N(C)C)[C@@H]3C[C@@H]1C2)C(=O)OCOC(=O)C12CC3CC(CC(C3)C1)C2 [Example 39, ({[(2-{[(5aR,6aS,7S,10aS)-9-(aminocarbonyl)-4,7-bis(dimethylamino)-1,8,10a,11-tetrahydroxy-10,12-dioxo-5,5a,6,6a,7,10,10a,12-octahydrotetracen-2-yl]amino}-2-oxoethyl)(butyl)amino]carbonyl}oxy)methyl adamantane-1-carboxylate]	1 to 4 (≈ 1.22 to 4.87 µM)	16 to 32 (≈ 19.5 to 38.9 µM)	1 to 4 (≈ 1.22 to 4.87 µM)	2 to 16 (≈ 2.43 to 19.5 µM)	13.3	0.6	–	–	–	–	1 to 4 (≈ 1.22 to 4.87 µM)	16 to 32 (≈ 19.5 to 38.9 µM)	1 to 4 (≈ 1.22 to 4.87 µM)	2 to 16 (≈ 2.43 to 19.5 µM)
CCCCN(CC(=O)Nc1cc(N(C)C)c2c(c1O)C(=O)C1=C(O)[C@]3(O)C(=O)C(C(N)=O)=C(O)[C@@H](N(C)C)[C@@H]3C[C@@H]1C2)C(=O)OCOC(=O)c1ccc(C(C)(C)C)cc1 [Example 20, ({[(2-{[(5aR,6aS,7S,10aS)-9-(aminocarbonyl)-4,7-bis(dimethylamino)-1,8,10a,11-tetrahydroxy-10,12-dioxo-5,5a,6,6a,7,10,10a,12-octahydrotetracen-2-yl]amino}-2-oxoethyl)(butyl)amino]carbonyl}oxy)methyl 4-tert-butylbenzoate]	0.5 to 2 (≈ 0.61 to 2.44 µM)	> 64	1 to 4 (≈ 1.22 to 4.88 µM)	–	19.4	0.6	–	–	–	–	0.5 to 2 (≈ 0.61 to 2.44 µM)	> 64	1 to 4 (≈ 1.22 to 4.88 µM)	–
CCCCCCC(=O)OCOC(=O)N(CCCC)CC(=O)Nc1cc(N(C)C)c2c(c1O)C(=O)C1=C(O)[C@]3(O)C(=O)C(C(N)=O)=C(O)[C@@H](N(C)C)[C@@H]3C[C@@H]1C2 [Example 17, ({[(2-{[(5aR,6aS,7S,10aS)-9-(aminocarbonyl)-4,7-bis(dimethylamino)-1,8,10a,11-tetrahydroxy-10,12-dioxo-5,5a,6,6a,7,10,10a,12-octahydrotetracen-2-yl]amino}-2-oxoethyl)(butyl)amino]carbonyl}oxy)methyl heptanoate]	0.5 to 2 (≈ 0.648 to 2.59 µM)	32 to 64 (≈ 41.5 to 82.9 µM)	1 to 4 (≈ 1.3 to 5.18 µM)	2 to 32 (≈ 2.59 to 41.5 µM)	59.9	1.07	–	–	–	–	0.5 to 2 (≈ 0.648 to 2.59 µM)	32 to 64 (≈ 41.5 to 82.9 µM)	1 to 4 (≈ 1.3 to 5.18 µM)	2 to 32 (≈ 2.59 to 41.5 µM)
CN(C)c1cc(NC(=O)CN(C(=O)OCOC(=O)c2c(F)cccc2F)C(C)(C)C)c(O)c2c1C[C@H]1C[C@H]3[C@H](N(C)C)C(O)=C(C(N)=O)C(=O)[C@@]3(O)C(O)=C1C2=O [Example 90, ({[(2-{[(5aR,6aS,7S,10aS)-9-(aminocarbonyl)-4,7-bis(dimethylamino)-1,8,10a,11-tetrahydroxy-10,12-dioxo-5,5a,6,6a,7,10,10a,12-octahydrotetracen-2-yl]amino}-2-oxoethyl)(tert-butyl)amino]carbonyl}oxy)methyl 2,6-difluorobenzoate]	2 to 4 (≈ 2.5 to 5 µM)	> 64	0.25 to 2 (≈ 0.313 to 2.5 µM)	1 to 16 (≈ 1.25 to 20 µM)	16 to 32	0.5 to 1	–	–	–	–	–	–	–	–
CN(C)c1cc(NC(=O)CN(C(=O)OCOC(=O)Cc2ccccc2)C(C)(C)C)c(O)c2c1C[C@H]1C[C@H]3[C@H](N(C)C)C(O)=C(C(N)=O)C(=O)[C@@]3(O)C(O)=C1C2=O [Example 67, ({[(2-{[(5aR,6aS,7S,10aS)-9-(aminocarbonyl)-4,7-bis(dimethylamino)-1,8,10a,11-tetrahydroxy-10,12-dioxo-5,5a,6,6a,7,10,10a,12-octahydrotetracen-2-yl]amino}-2-oxoethyl)(tert-butyl)amino]carbonyl}oxy)methyl phenylacetate]	0.12 to 0.25 (≈ 0.154 to 0.321 µM)	8 to 32 (≈ 10.3 to 41.1 µM)	0.12 to 0.25 (≈ 0.154 to 0.321 µM)	0.12 to 1 (≈ 0.154 to 1.29 µM)	–	–	–	–	–	–	–	–	–	–
CN(C)c1cc(NC(=O)CN(C(=O)OCOC(=O)c2cn(C)c3ccccc23)C(C)(C)C)c(O)c2c1C[C@H]1C[C@H]3[C@H](N(C)C)C(O)=C(C(N)=O)C(=O)[C@@]3(O)C(O)=C1C2=O [Example 83, ({[(2-{[(5aR,6aS,7S,10aS)-9-(aminocarbonyl)-4,7-bis(dimethylamino)-1,8,10a,11-tetrahydroxy-10,12-dioxo-5,5a,6,6a,7,10,10a,12-octahydrotetracen-2-yl]amino}-2-oxoethyl)(tert-butyl)amino]carbonyl}oxy)methyl 1-methyl-1H-indole-3-carboxylate]	–	> 64	8 to 32 (≈ 9.79 to 39.2 µM)	2 to 16 (≈ 2.45 to 19.6 µM)	–	–	–	–	–	–	–	–	–	–
